pIC50: −log10 of the molar value.
Target: T1, oestrogen receptor (ER) (Homo sapiens, UniProt P03372)
T1 construct: These MVLN cells express, along with the functional oestrogen receptor (ER), a reporter construct; endogenous in cells; host or cells: MVLN cells (MCF7 derivative carrying a luciferase reporter construct)
T1 sequence (P03372 1-595): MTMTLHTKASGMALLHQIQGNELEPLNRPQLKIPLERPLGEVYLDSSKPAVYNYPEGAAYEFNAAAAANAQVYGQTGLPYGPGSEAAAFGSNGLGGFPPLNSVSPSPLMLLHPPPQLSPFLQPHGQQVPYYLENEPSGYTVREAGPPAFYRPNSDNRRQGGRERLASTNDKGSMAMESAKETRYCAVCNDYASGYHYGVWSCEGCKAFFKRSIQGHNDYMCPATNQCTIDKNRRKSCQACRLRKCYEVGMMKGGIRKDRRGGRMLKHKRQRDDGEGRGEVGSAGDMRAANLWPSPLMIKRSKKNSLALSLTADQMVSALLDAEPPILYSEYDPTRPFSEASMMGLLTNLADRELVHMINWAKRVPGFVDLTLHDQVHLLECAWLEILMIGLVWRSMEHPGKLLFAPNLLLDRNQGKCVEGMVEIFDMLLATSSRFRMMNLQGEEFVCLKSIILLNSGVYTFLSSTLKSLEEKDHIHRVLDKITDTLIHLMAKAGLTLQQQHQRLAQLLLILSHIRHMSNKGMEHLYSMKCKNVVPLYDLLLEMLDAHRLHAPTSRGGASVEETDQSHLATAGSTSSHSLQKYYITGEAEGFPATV
Assay: Anti-oestrogenic action in MVLN cells (inhibition of estradiol-induced luciferase)
Assay type: cell-based
Details: inhibition of estradiol-induced luciferase signal, value of Ex. 44 is a mean value, read-out: Antioestrogenic action in vitro: MVLN transactivation antagonism IC50
Outline: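 Inhibition of estradiol-driven luciferase expression was measured with compounds co-applied alongside oestrogen. Reporter system: MCF7-derived MVLN cells expressing endogenous functional ER and an ER-responsive luciferase construct.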

Structure (SMILES)	pIC50
C[C@H](O)CN(CCCCCCC1=C(c2ccc(F)cc2)CCCc2cc(O)ccc21)CCCCS(=O)(=O)CCCC(F)(F)F [Example 93, 8-(4-Fluorophenyl)-9-[6-([(2S)-2-hydroxypropyl]{4-[(4,4,4-trifluorobutyl)sulphonyl]butyl}amino)hexyl]-6,7-dihydro-5H-benzo[7]annulen-3-ol]	8.30
O=C(O)CN(CCCCCCC1=C(c2ccc(F)cc2)CCCc2cc(O)ccc21)CCCCS(=O)(=O)CCCC(F)(F)F [Example 94, N-{6-[8-(4-Fluorophenyl)-3-hydroxy-6,7-dihydro-5H-benzo[7]annulen-9-yl]hexyl}-N-{4-[(4,4,4-trifluorobutyl)sulphonyl]butyl}glycine]	7.68
O=C(O)CCN(CCCCCCC1=C(c2ccc(F)cc2)CCCc2cc(O)ccc21)CCCCS(=O)(=O)CCCC(F)(F)F [Example 95, N-{6-[8-(4-Fluorophenyl)-3-hydroxy-6,7-dihydro-5H-benzo[7]annulen-9-yl]hexyl}-N-{4-[(4,4,4-trifluorobutyl)sulphonyl]butyl}-beta-alanine]	7.72
O=C(O)CCCN(CCCCCCC1=C(c2ccc(F)cc2)CCCc2cc(O)ccc21)CCCCS(=O)(=O)CCCC(F)(F)F [Example 96, 4-({6-[8-(4-Fluorophenyl)-3-hydroxy-6,7-dihydro-5H-benzo[7]annulen-9-yl]hexyl}{4-[(4,4,4-trifluorobutyl)sulphonyl]butyl}amino)butanoic acid]	7.68
O=S(=O)(CCCN(CCO)CCCCCCC1=C(c2ccc(F)cc2)CCCc2cc(O)ccc21)CCCC(F)(F)F [Example 97, 8-(4-Fluorophenyl)-9-{6-[(2-hydroxyethyl){3-[(4,4,4-trifluorobutyl)sulphonyl]propyl}amino]hexyl}-6,7-dihydro-5H-benzo[7]annulen-3-ol]	8.15
C[C@@H](O)CN(CCCCCCC1=C(c2ccc(F)cc2)CCCc2cc(O)ccc21)CCCCS(=O)(=O)CCCC(F)(F)F [Example 98]	8.22
CN(CCCCCCC1=C(c2ccc(F)cc2)CCCc2cc(O)c(F)cc21)CCCS(=O)(=O)CCCC(F)(F)C(F)(F)F [Example 99, 2-Fluoro-8-(4-fluorophenyl)-9-[6-(methyl{3-[(4,4,5,5,5-pentafluoropentyl)sulphonyl]propyl}amino)hexyl]-6,7-dihydro-5H-benzo[7]annulen-3-ol]	7.82
O=S(=O)(CCCN(CCO)CCCCCCC1=C(c2ccc(F)cc2)CCCc2cc(O)c(F)cc21)CCCC(F)(F)C(F)(F)F [Example 100, 2-Fluoro-8-(4-fluorophenyl)-9-{6-[(2-hydroxyethyl){3-[(4,4,5,5,5-pentafluoropentyl)sulphonyl]propyl}amino]hexyl}-6,7-dihydro-5H-benzo[7]annulen-3-ol]	8.05
CN(CCCCCCC1=C(c2ccc(F)cc2)CCCc2cc(O)c(F)cc21)CCCCS(=O)(=O)CCCC(F)(F)F [Example 101, 2-Fluoro-8-(4-fluorophenyl)-9-[6-(methyl{4-[(4,4,4-trifluorobutyl)sulphonyl]butyl}amino)hexyl]-6,7-dihydro-5H-benzo[7]annulen-3-ol]	8.22
CN(CCCCCCC1=C(c2ccc(F)cc2)CCCc2cc(O)c(F)cc21)CCCS(=O)(=O)CCCCC(F)(F)F [Example 102, 2-Fluoro-8-(4-fluorophenyl)-9-[6-(methyl{3-[(5,5,5-trifluoropentyl)sulphonyl]propyl}amino)hexyl]-6,7-dihydro-5H-benzo[7]annulen-3-ol]	8.00
O=S(=O)(CCCN(CCO)CCCCCCC1=C(c2ccc(F)cc2)CCCc2cc(O)c(F)cc21)CCCC(F)(F)F [Example 103, 2-Fluoro-8-(4-fluorophenyl)-9-{6-[(2-hydroxyethyl){3-[(4,4,4-trifluorobutyl)sulphonyl]propyl}amino]hexyl}-6,7-dihydro-5H-benzo[7]annulen-3-ol]	8.30
O=S(=O)(CCCCN(CCO)CCCCCCC1=C(c2ccc(F)cc2)CCCc2cc(O)c(F)cc21)CCCC(F)(F)F [Example 104, 2-Fluoro-8-(4-fluorophenyl)-9-{6-[(2-hydroxyethyl){4-[(4,4,4-trifluorobutyl)sulphonyl]butyl}amino]hexyl}-6,7-dihydro-5H-benzo[7]annulen-3-ol]	8.15
CN(CCCCCCC1=C(c2ccc(F)cc2)CCCc2cc(O)c(F)cc21)CCCCS(=O)(=O)CCCC(F)(F)C(F)(F)F [Example 105, 2-Fluoro-8-(4-fluorophenyl)-9-[6-(methyl{4-[(4,4,5,5,5-pentafluoropentyl)sulphonyl]butyl}amino)hexyl]-6,7-dihydro-5H-benzo[7]annulen-3-ol]	7.92
CN(CCCCCCC1=C(c2ccc(F)cc2)CCCc2cc(O)c(F)cc21)CCCCS(=O)(=O)CCC(F)(F)F [Example 106, 2-Fluoro-8-(4-fluorophenyl)-9-[6-(methyl{4-[(3,3,3-trifluoropropyl)sulphonyl]butyl}amino)hexyl]-6,7-dihydro-5H-benzo[7]annulen-3-ol]	8.00

Continued, values first:

pIC50	Structure (SMILES)
6.91	CN(CCCCCCC1=C(c2ccc(F)cc2)CCCc2cc(O)c(F)cc21)CCCCCS(=O)(=O)CCC(F)(F)F [Example 107, 2-Fluoro-8-(4-fluorophenyl)-9-[6-(methyl{5-[(3,3,3-trifluoropropyl)sulphonyl]pentyl}amino)hexyl]-6,7-dihydro-5H-benzo[7]annulen-3-ol]
7.16	O=S(=O)(CCCN(CCO)CCCCCCC1=C(c2ccc(F)cc2)CCCc2cc(O)ccc21)CCC(F)(C(F)(F)F)C(F)(F)F [Example 108, 8-(4-Fluorophenyl)-9-{6-[(2-hydroxyethyl)(3-{[3,4,4,4-tetrafluoro-3-(trifluoromethyl)butyl]sulphonyl}propyl)amino]hexyl}-6,7-dihydro-5H-benzo[7]annulen-3-ol]
7.59	O=S(=O)(CCCCN(CCO)CCCCCCC1=C(c2ccc(F)cc2)CCCc2cc(O)ccc21)CCC(F)(C(F)(F)F)C(F)(F)F [Example 109, 8-(4-Fluorophenyl)-9-{6-[(2-hydroxyethyl)(4-{[3,4,4,4-tetrafluoro-3-(trifluoromethyl)butyl]sulphonyl}butyl)amino]hexyl}-6,7-dihydro-5H-benzo[7]annulen-3-ol]
7.14	CN(CCCCCCC1=C(c2ccc(F)cc2)CCCc2cc(O)ccc21)CCCS(=O)(=O)CCC(F)(C(F)(F)F)C(F)(F)F [Example 110, 8-(4-Fluorophenyl)-9-{6-[methyl(3-{[3,4,4,4-tetrafluoro-3-(trifluoromethyl)butyl]sulphonyl}propyl)amino]hexyl}-6,7-dihydro-5H-benzo[7]annulen-3-ol]
7.48	CN(CCCCCCC1=C(c2ccc(F)cc2)CCCc2cc(O)ccc21)CCCCS(=O)(=O)CCC(F)(C(F)(F)F)C(F)(F)F [Example 111, 8-(4-Fluorophenyl)-9-{6-[methyl(4-{[3,4,4,4-tetrafluoro-3-(trifluoromethyl)butyl]sulphonyl}butyl)amino]hexyl}-6,7-dihydro-5H-benzo[7]annulen-3-ol]
8.15	O=S(=O)(CCCCC(F)(F)F)CCCNCCCCCCC1=C(c2ccc(F)cc2)CCCc2cc(O)ccc21 [Example 112, 8-(4-Fluorophenyl)-9-[6-({3-[(5,5,5-trifluoropentyl)sulphonyl]propyl}amino)hexyl]-6,7-dihydro-5H-benzo[7]annulen-3-ol]
7.74	O=S(=O)(CCCNCCCCCCC1=C(c2ccc(F)cc2)CCCc2cc(O)ccc21)CCCC(F)(F)C(F)(F)F [Example 113, 8-(4-Fluorophenyl)-9-[6-({3-[(4,4,5,5,5-pentafluoropentyl)sulphonyl]propyl}amino)hexyl]-6,7-dihydro-5H-benzo[7]annulen-3-ol]
7.10	CC(C)(O)CN(CCCCCCC1=C(c2ccc(F)cc2)CCCc2cc(O)ccc21)CCCS(=O)(=O)CCC(F)(F)F [Example 119, 8-(4-fluorophenyl)-9-{6-[(2-hydroxy-2-methylpropyl){3-[(3,3,3-trifluoropropyl)sulphonyl]propyl}amino]hexyl}-6,7-dihydro-5H-benzo[7]annulen-3-ol]
7.25	CC(C)(O)CN(CCCCCCC1=C(c2ccc(F)cc2)CCCc2cc(O)ccc21)CCC[S+]([O-])CCC(F)(F)F (centres unmarked) [Example 120, 8-(4-fluorophenyl)-9-{6-[(2-hydroxy-2-methylpropyl){3-[(3,3,3-trifluoropropyl)sulphinyl]propyl}amino)hexyl}-6,7-dihydro-5H-benzo[7]annulen-3-ol]
7.39	CN(CCCCCCC1=C(c2ccc(F)cc2)CCCc2cc(O)ccc21)CCCS(=O)(=O)C1CCC(F)(F)CC1 [Example 121, 9-{6-[{3-[(4,4-difluorocyclohexyl)sulphonyl]propyl}(methyl)amino]hexyl}-8-(4-fluorophenyl)-6,7-dihydro-5H-benzo[7]annulen-3-ol]
8.05	CN(CCCCCCC1=C(c2ccccc2F)CCCc2cc(O)ccc21)CCCS(=O)(=O)CCCC(F)(F)C(F)(F)F [Example 126]
7.16	CN(CCCCCC1=C(c2ccc(F)cc2)CCCc2cc(O)ccc21)CCCS(=O)(=O)CCCC(F)(F)C(F)(F)F [Example 127]
